# Measured values: publication PMC12514245, “Impaired migration and lung invasion of human melanoma by a novel small molecule targeting the transmembrane domain of death receptor p75^NTR” (EMBO Molecular Medicine, 2025)
# “And” between values parts separate entries of the source, which are not always exact repeats. Identical values can stand only once. “Also recorded” adds a separate entry of the source.
# Columns and labels:
# p75^NTR TMD = molecular target: T1, p75^NTR TMD (Homo sapiens, UniProt P08138); assay: AraTM assay, wild-type p75NTR TMD (GFP/OD630); format: cell-based; conditions: structure-activity comparison
# T1 sequence (P08138 250-275 limits assumed): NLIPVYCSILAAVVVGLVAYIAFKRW
# [1] = system: A875-NT melanoma xenograft; assay: Melanoma lung invasion assay, A875-NT, delayed treatment 3 weeks after cell injection; format: in vivo, SCID mice; conditions: A875-NT, group average
# Experimental: (§1) Finally, we investigated whether delayed administration of Np75-4A22 was able to affect engraftment and growth of metastatic tumors in the lung. To this end, drug treatment (orally at 200 mg/kg) was initiated 3 weeks after intravenous injection of A875-NT or A875-shp75 cells in female SCID mice and continued for additionally 4 weekly cycles (5 days on/2 days off) as above (Fig. 8E). Metastatic spread to the lungs was monitored weekly by bioluminescent imaging of luciferase-expressing melanoma cells. […] We conclude that Np75-4A22 can be efficacious at reducing the spread and seeding of melanoma cells in the lung when administered either before or after cell implantation.
# (§2) Eight-week-old female SCID mice (Charles River Laboratories, Shrewsbury, MA, USA) were housed in groups of three to five and maintained on a 12-h light/dark schedule with a temperature of 22 °C ± 1 °C and a relative humidity of 50% ± 5%. Food and water were available ad libitum. This research study was reviewed and approved by the University of Calgary Animal Care Committee (AC22-0054) and McGill University (AUP-JGH-8269) and adheres to established ethical principles and guidelines. A875-GFPLuc (A875-NT) or A875-GFPLuc shp75 (A875-shp75) cells harvested using Puck’s EDTA were resuspended in PBS and injected intravenously into SCID mice (5 × 10^5 cells/200 μl per mouse). Np75-4A22 was dissolved in 0.5% sodium carboxymethyl cellulose (NaCMC) in reverse osmosis H2O and administered by oral gavage at 200 mg/kg/day starting one day prior to intravenous (tail vein) injection of tumor cells and continued for 3 1-week cycles (cycle: 5 days on drug, 2 days off drug). Tumor spread to the lung was monitored weekly by luciferase activity using the Xenogen IVIS-200 Optical in vivo luciferase imaging system as described previously (Lun et al, [2016]) and by immunohistochemistry (IHC) at designated time points. IHC was performed after formalin fixation, paraffin embedding and sectioning of the lungs, using a human-specific mouse polyclonal nucleolin antibody (1:500 dilution) and detected using Dako liquid DAB+ Substrate Chromogen System (Dako: k3468, California, USA) followed by a hematoxylin counterstain (Sigma, Oakville, ON, Canada). Sections were mounted and imaged on an Olympus phase contrast microscope (Olympus Life Science, Tokyo, Japan). For immunofluorescence, sections were stained with anti-human nucleolin and anti-human p75NTR antibodies (1:1000 dilution), subsequently detected with 1:200 dilutions of Alexa Fluor™ 488 Goat anti-Mouse IgG (H + L) Highly Cross-Adsorbed Secondary Antibody and Alexa Fluor™ 568 Goat anti-Rabbit IgG (H + L) Cross-Adsorbed Secondary Antibody. Sections were further stained with DAPI to detect all nuclei. Between each treatment, TBS Automation Wash Buffer (Biocare Medical TWB945M) was employed. Images were taken with LSM800 confocal microscope and ZEN system.
# [2] = system: A875-shp75 melanoma xenograft; assay: Melanoma lung invasion assay, A875-shp75, delayed treatment 3 weeks after cell injection; format: in vivo, SCID mice; conditions: group average
# Experimental: as §1, §2
# A875 NT cells [3] = assay: Wound healing cell motility assay, A875 NT; format: cell-based, human; conditions: for Wound area, Mean / Wound area, n1-n3: 5μM Q_VD_poH; for Wound area, Mean: N=3
# Experimental: (§3) For wound healing assay, cells were grown until confluency and subjected to a wound across the cell mono-layer. Cells were then incubated with serum-free media either with DMSO or a small molecule (with or without 5 µM Q_VD_poH) and imaged at specific time-points. Cell migration is reflected as fold change in wound area over time.
# A875 melanoma cells (NT) = assay: Cleaved PARP western blot (apoptosis), A875 NT; format: cell-based, human; conditions: Q-VD-pOH 5 µM; Div17E5 10 µM
# Experimental: One of the main biological readouts of p75^NTR activity in response to neurotrophins is the induction of caspase-mediated apoptotic cell death (Underwood and Coulson, [2008]; Friedman, [2010]; Ibáñez and Simi, [2012]).
# COS7, A875 and WM115 cell lines were cultured under standard conditions in DMEM supplemented with 10% fetal calf serum, 100 units/ml penicillin, […] streptomycin, and 2.5 mM glutamine. All cells were authenticated and tested for mycoplasma contamination. A875-NT (control) and A875 shp75 (knockdown) cell lines were described previously (Goh et al, [2018]).
# A875 shp75 cells = assay: Wound healing cell motility assay, A875 shp75; format: cell-based, human; conditions: 5μM Q_VD_poH; for Wound area, Mean: N=3
# Experimental: as §3
# A875 NT cells [4] = assay: Boyden chamber chemotaxis/invasion assay, A875 NT; format: cell-based, human; conditions: 5μM Q_VD_pOH; for Fold change (invading cells), Mean: N=3
# Experimental: For Boyden chamber assay, Corning® BioCoat™ Matrigel® Invasion Chambers 8.0 µm PET Membrane were used (cat. no. 354480). A875 NT or WM115 cells were serum-starved for 16 h and then seeded at 60,000 cells per well in serum-free media under different conditions, including DMSO (vehicle) or small molecules Div17E5 or Np75-4A22 at different concentrations to the top chamber of the Matrigel-coated trans-well chamber. The pan-caspase inhibitor Q_VD_poH (at 5 µM) was also introduced in the top chamber in some experiments. Two different chemoattractants, NGF (at 50 ng/ml or 100 ng/ml as indicated) or 10% FBS were added to the bottom chamber. Assays were carried out for 8 h after which filters were fixed in 4% PFA and stained with DAPI. Cells that had remained on the top of the filter were gently scrapped away with a cotton tip. The filter lower side was imaged on an inverted fluorescence microscope and counted using ImageJ software (NIH).
compound,measurement,setting,value
O=C(Nc1ccc([N+](=O)[O-])cc1)c1cncc(-c2cccc(OC3CCCC3)c2)n1 [Np75-3A51],activity in the AraTM assay,p75^NTR TMD,activity was lost
COc1ccccc1-c1cncc(Nc2ccc([N+](=O)[O-])cc2)n1 [Np75-3A01],activity in the AraTM assay,p75^NTR TMD,"MS_18 more potent than Np75-3A01, -3A02"
Cc1ccc(-c2cncc(Nc3ccc([N+](=O)[O-])cc3)n2)cc1 [Np75-3A21],activity in the AraTM assay,p75^NTR TMD,best compounds; also recorded: Np75-3A21 better than -3A19 and -3A20; also recorded: best hit from this series
O=C(Nc1ccc([N+](=O)[O-])cc1)c1cncc(-c2ccc3ccccc3c2)n1 [Np75-3A49],activity in the AraTM assay,p75^NTR TMD,activity was lost
Cc1cccc(-c2cncc(Nc3ccc(Br)c(Cl)c3Cl)n2)c1C [4A-22],"Average Photons/second/week, wk2",[1]; wk2,77712.5 Photons/second
same,"Average Photons/second/week, wk3",[1]; wk3,189000 Photons/second
same,"Average Photons/second/week, wk4",[1]; wk4,170125 Photons/second
same,"Average Photons/second/week, wk5",[1]; wk5,304375 Photons/second
same,"Average Photons/second/week, wk6",[1]; wk6,845350 Photons/second
same,"Average Photons/second/week, wk7",[1]; wk7,3166750 Photons/second
same,"Average Photons/second/week, wk2",[2]; wk2,9.88E+04 Photons/second
same,"Average Photons/second/week, wk3",[2]; wk3,1.46E+05 Photons/second
same,"Average Photons/second/week, wk4",[2]; wk4,1.10E+05 Photons/second
same,"Average Photons/second/week, wk5",[2]; wk5,2.77E+05 Photons/second
same,"Average Photons/second/week, wk6",[2]; wk6,4.60E+05 Photons/second
same,"Average Photons/second/week, wk7",[2]; wk7,1.10E+06 Photons/second
"CC(C)[C@H](NC(=O)c1ccc2ccccc2n1)C(=O)N[C@@H](CC(=O)O)C(=O)COc1c(F)cccc1F [Q-VD-pOH, reference compound]",rescue of Div17E5 effect on cell motility by caspase inhibitor,A875 NT cells [3],could not be rescued
same,"Wound area, Mean",A875 NT cells [3]; 0 hours,1.000 Fold
same,"Wound area, n1-n3",A875 NT cells [3]; 3 hours,0.912 Fold and 1.045 Fold and 0.955 Fold
same,"Wound area, Mean",A875 NT cells [3]; 3 hours,0.971 Fold
same,"Wound area, n1-n3",A875 NT cells [3]; 6 hours,0.873 Fold and 1.010 Fold and 0.935 Fold
same,"Wound area, Mean",A875 NT cells [3]; 6 hours,0.939 Fold
same,"Wound area, n1-n3",A875 NT cells [3]; 9 hours,0.814 Fold and 0.952 Fold and 0.859 Fold
same,"Wound area, Mean",A875 NT cells [3]; 9 hours,0.875 Fold
same,"Wound area, n1-n3",A875 NT cells [3]; 12 hours,0.792 Fold and 0.920 Fold and 0.820 Fold
same,"Wound area, Mean",A875 NT cells [3]; 12 hours,0.844 Fold
same,"Wound area, n1-n3",A875 NT cells [3]; 15 hours,0.758 Fold and 0.880 Fold and 0.797 Fold
same,"Wound area, Mean",A875 NT cells [3]; 15 hours,0.811 Fold
same,"Wound area, n1-n3",A875 NT cells [3]; 18 hours,0.732 Fold and 0.836 Fold and 0.772 Fold
same,"Wound area, Mean",A875 NT cells [3]; 18 hours,0.780 Fold
same,"Wound area, n1-n3",A875 NT cells [3]; 21 hours,0.724 Fold and 0.832 Fold and 0.756 Fold
same,"Wound area, Mean",A875 NT cells [3]; 21 hours,0.771 Fold
same,"Wound area, n1-n3",A875 NT cells [3]; 24 hours,0.707 Fold and 0.800 Fold and 0.730 Fold
same,"Wound area, Mean",A875 NT cells [3]; 24 hours,0.746 Fold
same,block of Div17E5-induced apoptosis (cleaved PARP),A875 melanoma cells (NT),could be blocked
same,"Wound area, n1-n3",A875 shp75 cells; 0 hours,0.942 Fold and 1.051 Fold and 1.006 Fold
same,"Wound area, Mean",A875 shp75 cells; 0 hours,1.000 Fold
same,"Wound area, n1-n3",A875 shp75 cells; 3 hours,0.980 Fold and 1.009 Fold and 0.979 Fold
same,"Wound area, Mean",A875 shp75 cells; 3 hours,0.989 Fold
same,"Wound area, n1-n3",A875 shp75 cells; 6 hours,0.990 Fold and 1.014 Fold and 0.952 Fold
same,"Wound area, Mean",A875 shp75 cells; 6 hours,0.985 Fold
same,"Wound area, n1-n3",A875 shp75 cells; 9 hours,0.935 Fold and 0.937 Fold and 0.886 Fold
same,"Wound area, Mean",A875 shp75 cells; 9 hours,0.919 Fold
same,"Wound area, n1-n3",A875 shp75 cells; 12 hours,0.939 Fold and 0.913 Fold and 0.875 Fold
same,"Wound area, Mean",A875 shp75 cells; 12 hours,0.909 Fold
same,"Wound area, n1-n3",A875 shp75 cells; 15 hours,0.891 Fold and 0.870 Fold and 0.844 Fold
same,"Wound area, Mean",A875 shp75 cells; 15 hours,0.869 Fold
same,"Wound area, n1-n3",A875 shp75 cells; 18 hours,0.856 Fold and 0.835 Fold and 0.800 Fold
same,"Wound area, Mean",A875 shp75 cells; 18 hours,0.830 Fold
same,"Wound area, n1-n3",A875 shp75 cells; 21 hours,0.849 Fold and 0.778 Fold and 0.767 Fold
same,"Wound area, Mean",A875 shp75 cells; 21 hours,0.798 Fold
same,"Wound area, n1-n3",A875 shp75 cells; 24 hours,0.815 Fold and 0.772 Fold and 0.761 Fold
same,"Wound area, Mean",A875 shp75 cells; 24 hours,0.783 Fold
same,"Fold change (invading cells), n1-n3",A875 NT cells [4]; With NGF,2.27 Fold and 1.89 Fold and 2.17 Fold
same,"Fold change (invading cells), Mean",A875 NT cells [4]; With NGF,2.11 Fold
same,"Fold change (invading cells), n1-n3",A875 NT cells [4]; without NGF,1.22 Fold and 1.02 Fold and 1.42 Fold
same,"Fold change (invading cells), Mean",A875 NT cells [4]; without NGF,1.22 Fold
